Results published in US8754209B2, “Indazole derivatives or pharmaceutically acceptable salts thereof as protein kinase inhibitors for proliferative diseases treatment, and a pharmaceutical composition containing the same as an active ingredient” (Korea Institute of Science and Technology, priority 2009, dated 2014).
pIC50: −log10 of the molar value. Each block holds one molecule with its values, some of them ahead of it.

What was measured:
T3151-Bcr-Abl = settings: cited from earlier work
A375 melanoma cell line = settings: raf-V660E overexpression cell strain; read-out: anti-proliferative activity IC50, A375 melanoma cell line; cited from earlier work
Fms (h) = Fms (h) (Homo sapiens, UniProt P07333); experiment: Kinase activity profiling service (Millipore); format: biochemical; settings: read-out: Kinase inhibitory activity (IC50, uM) Fms (h)
Fms (h), sequence (P07333 20-972): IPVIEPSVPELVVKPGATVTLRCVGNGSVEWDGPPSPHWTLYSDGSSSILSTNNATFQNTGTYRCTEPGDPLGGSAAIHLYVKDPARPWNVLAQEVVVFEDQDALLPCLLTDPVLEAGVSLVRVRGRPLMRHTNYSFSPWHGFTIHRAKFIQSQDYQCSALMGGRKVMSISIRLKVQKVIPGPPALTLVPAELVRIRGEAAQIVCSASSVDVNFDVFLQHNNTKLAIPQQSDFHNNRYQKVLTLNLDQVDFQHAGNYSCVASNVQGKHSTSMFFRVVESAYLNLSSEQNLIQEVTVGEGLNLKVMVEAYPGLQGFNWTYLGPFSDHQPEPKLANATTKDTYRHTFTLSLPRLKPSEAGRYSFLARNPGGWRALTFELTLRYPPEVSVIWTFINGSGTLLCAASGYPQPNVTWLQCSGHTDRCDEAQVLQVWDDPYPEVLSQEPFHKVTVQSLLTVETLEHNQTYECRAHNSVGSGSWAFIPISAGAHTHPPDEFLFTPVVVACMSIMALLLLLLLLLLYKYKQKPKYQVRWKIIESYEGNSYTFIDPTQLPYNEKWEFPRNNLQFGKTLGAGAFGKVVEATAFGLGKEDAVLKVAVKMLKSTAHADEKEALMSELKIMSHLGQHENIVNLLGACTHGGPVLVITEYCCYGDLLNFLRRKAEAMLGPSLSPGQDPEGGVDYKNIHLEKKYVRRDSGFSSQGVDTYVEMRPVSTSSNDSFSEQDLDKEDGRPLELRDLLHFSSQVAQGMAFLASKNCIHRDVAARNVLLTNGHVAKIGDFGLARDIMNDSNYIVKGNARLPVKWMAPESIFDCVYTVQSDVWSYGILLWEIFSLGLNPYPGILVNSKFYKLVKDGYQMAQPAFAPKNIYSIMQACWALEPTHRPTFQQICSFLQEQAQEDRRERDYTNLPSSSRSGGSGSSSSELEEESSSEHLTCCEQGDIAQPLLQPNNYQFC
Description: (§1) Also, as mentioned above we tested kinase activities of the representative compounds of the examples using Kinase activity profiling service (Millipore UK Ltd Gemini Crescent, Dundee Technology Park, Dundee DD2 1SW, UK).

Ret (h) = Ret (h) (Homo sapiens, UniProt P07949); experiment: Kinase activity profiling service (Millipore); format: biochemical; settings: read-out: Kinase inhibitory activity (IC50, uM) Ret (h)
Ret (h), sequence (P07949 29-1114): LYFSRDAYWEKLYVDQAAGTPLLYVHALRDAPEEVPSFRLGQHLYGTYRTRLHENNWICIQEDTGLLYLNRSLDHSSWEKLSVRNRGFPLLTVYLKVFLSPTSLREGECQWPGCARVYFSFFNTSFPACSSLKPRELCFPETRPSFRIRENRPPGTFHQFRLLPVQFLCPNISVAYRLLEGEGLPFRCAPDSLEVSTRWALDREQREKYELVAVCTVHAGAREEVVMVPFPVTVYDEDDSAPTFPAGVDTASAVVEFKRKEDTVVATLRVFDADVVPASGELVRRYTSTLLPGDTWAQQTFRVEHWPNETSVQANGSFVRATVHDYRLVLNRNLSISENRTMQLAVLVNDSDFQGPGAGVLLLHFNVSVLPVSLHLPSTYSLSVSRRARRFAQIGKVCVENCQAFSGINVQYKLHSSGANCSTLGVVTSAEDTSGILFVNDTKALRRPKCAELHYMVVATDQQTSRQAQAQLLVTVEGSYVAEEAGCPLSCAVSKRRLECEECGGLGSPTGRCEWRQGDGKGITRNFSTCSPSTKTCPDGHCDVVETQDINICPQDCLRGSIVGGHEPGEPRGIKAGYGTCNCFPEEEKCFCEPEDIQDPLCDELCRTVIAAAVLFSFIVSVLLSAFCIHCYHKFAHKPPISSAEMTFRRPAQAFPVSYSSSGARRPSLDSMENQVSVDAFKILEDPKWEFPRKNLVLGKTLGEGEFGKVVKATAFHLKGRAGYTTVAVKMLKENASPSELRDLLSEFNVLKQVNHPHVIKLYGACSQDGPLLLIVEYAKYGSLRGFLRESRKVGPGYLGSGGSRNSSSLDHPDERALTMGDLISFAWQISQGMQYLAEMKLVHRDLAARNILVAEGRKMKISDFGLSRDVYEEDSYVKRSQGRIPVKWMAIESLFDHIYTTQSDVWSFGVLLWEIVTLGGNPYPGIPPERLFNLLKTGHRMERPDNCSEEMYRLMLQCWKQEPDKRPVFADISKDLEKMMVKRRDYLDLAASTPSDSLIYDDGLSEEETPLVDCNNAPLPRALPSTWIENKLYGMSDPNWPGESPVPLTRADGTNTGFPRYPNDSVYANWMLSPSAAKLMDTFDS
Description: as §1

SAPK2a (h) = SAPK2a (h) (Homo sapiens, UniProt Q16539); experiment: Kinase activity profiling service (Millipore); format: biochemical; settings: read-out: Kinase inhibitory activity (IC50, uM) SAPK2a (h)
SAPK2a (h), sequence (Q16539 whole entry): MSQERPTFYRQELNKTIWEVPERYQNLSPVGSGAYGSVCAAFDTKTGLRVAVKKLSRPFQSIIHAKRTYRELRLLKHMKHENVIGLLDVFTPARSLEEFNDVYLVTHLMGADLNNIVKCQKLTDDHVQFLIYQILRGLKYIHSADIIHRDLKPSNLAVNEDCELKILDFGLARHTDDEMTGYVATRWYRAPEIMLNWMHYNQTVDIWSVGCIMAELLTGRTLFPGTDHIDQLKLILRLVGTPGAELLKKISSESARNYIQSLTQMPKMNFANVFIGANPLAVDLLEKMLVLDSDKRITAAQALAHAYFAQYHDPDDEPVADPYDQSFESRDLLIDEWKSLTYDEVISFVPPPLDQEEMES
Description: as §1

c-RAF (h) = c-RAF (h) (Homo sapiens, UniProt P04049); experiment: Kinase activity profiling service (Millipore); format: biochemical; settings: read-out: Kinase inhibitory activity (IC50, uM) c-RAF (h)
c-RAF (h), sequence (P04049 whole entry): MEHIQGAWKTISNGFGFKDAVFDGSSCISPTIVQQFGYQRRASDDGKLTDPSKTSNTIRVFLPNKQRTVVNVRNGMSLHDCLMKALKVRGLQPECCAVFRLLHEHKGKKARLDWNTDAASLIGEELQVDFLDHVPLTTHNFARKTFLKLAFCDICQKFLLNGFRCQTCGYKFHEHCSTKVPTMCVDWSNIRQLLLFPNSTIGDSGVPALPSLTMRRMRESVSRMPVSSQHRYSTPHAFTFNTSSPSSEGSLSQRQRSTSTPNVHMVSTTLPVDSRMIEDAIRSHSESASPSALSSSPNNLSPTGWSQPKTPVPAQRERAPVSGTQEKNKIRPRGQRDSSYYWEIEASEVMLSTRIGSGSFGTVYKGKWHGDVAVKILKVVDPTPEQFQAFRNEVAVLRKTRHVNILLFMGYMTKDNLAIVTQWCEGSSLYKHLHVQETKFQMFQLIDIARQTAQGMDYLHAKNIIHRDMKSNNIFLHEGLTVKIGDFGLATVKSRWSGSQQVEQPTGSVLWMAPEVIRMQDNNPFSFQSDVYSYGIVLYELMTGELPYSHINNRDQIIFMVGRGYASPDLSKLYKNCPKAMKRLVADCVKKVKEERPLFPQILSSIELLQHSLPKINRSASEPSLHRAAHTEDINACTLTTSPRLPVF
Description: as §1

Tie2 (h) = Tie2 (h) (Homo sapiens, UniProt Q02763); experiment: Kinase activity profiling service (Millipore); format: biochemical; settings: read-out: Kinase inhibitory activity (IC50, uM) Tie2 (h)
Tie2 (h), sequence (Q02763 23-1124): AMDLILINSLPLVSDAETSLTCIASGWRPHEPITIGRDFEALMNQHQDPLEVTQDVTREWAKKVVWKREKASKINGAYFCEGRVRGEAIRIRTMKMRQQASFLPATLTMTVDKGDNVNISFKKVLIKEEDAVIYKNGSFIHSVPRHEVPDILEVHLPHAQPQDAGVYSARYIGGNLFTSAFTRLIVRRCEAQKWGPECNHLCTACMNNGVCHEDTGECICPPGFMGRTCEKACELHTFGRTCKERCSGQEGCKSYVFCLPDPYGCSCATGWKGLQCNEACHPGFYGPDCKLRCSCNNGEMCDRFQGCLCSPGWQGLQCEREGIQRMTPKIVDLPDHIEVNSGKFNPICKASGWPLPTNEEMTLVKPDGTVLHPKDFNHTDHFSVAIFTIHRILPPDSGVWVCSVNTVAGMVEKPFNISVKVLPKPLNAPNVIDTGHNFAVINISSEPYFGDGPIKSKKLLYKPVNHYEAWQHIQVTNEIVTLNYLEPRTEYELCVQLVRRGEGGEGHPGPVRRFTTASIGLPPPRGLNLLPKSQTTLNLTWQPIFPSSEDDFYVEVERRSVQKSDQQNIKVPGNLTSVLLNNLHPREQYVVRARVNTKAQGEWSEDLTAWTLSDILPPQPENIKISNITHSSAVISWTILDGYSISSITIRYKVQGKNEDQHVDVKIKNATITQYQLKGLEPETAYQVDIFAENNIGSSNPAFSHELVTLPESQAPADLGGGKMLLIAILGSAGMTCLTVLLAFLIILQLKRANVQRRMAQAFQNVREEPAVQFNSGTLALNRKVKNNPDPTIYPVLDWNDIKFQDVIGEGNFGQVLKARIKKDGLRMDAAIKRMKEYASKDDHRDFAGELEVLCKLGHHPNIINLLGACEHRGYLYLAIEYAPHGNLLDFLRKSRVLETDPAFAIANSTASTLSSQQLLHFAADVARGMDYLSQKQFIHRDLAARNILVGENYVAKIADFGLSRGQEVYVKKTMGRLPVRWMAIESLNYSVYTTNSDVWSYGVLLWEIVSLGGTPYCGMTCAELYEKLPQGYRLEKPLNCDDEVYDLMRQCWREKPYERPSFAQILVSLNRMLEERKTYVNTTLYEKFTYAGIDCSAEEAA
Description: as §1

KDR (h) = KDR (h) (Homo sapiens, UniProt P35968); experiment: Kinase activity profiling service (Millipore); format: biochemical; settings: read-out: Kinase inhibitory activity (IC50, uM) KDR (h)
Description: as §1

A375P cells = experiment: Anti-proliferative activity on A375P cell line (MTT assay); format: cell-based; settings: A375P human melanoma cell line
Experimental: A375P cells were purchased from American Type Culture Collection (ATCC, Rockville, Md., US) and maintained in DMEM medium (Welgene, Daegu, Korea) supplemented with 10% FBS (Welgene) and 1% penicillin/streptomycin (Welgene) in a humidified atmosphere with 5% CO2 at 37° C. The A375P cells were taken from culture substrate with 0.05% trypsin-0.02% EDTA and plated at a density of 5×10^3 cells/well in 96 well plates and then incubated at 37° C. for 24 h in a humidified atmosphere with 5% CO2 prior to treatment of various concentration (three fold serial dilution, 12 points) of test compounds. The A357P cell viability was assessed by the conventional 3-(4,5-dimethylthiazol-2-yl)-2,5-diphenyltetrazolium bromide (MTT) reduction assay. MTT assays were carried out with CellTiter 96 (Promega) according to the manufacturer's instructions.
After 1 day, 0.5 μl the representative compounds of the examples were added thereto. The representative compounds of the examples were prepared by three fold serial dilution of 10 mM stock solution in DMSO, 12 point (final conc. DMSO 0.5%). Then, 15 μl dye was added in each well. After 2 h, 100 μl stop solution was added each well. After 24 h, absorbance was measured. The absorbance at 590 nm was recorded using EnVision2103 (PerkinElmer; Boston, Mass., US). The IC50 value was calculated using GraphPad Prism 4.0 software.

B-Raf-V600E = B-Raf-V600E (Homo sapiens, UniProt P15056, V600E); experiment: B-Raf kinase enzyme assay (MEK1/Erk2 cascade, MBP phosphorylation, 32P); format: biochemical; settings: read-out: b-raf-V600Ekinase inhibitory activity (IC50)
B-Raf-V600E, sequence (P15056 whole entry V600E): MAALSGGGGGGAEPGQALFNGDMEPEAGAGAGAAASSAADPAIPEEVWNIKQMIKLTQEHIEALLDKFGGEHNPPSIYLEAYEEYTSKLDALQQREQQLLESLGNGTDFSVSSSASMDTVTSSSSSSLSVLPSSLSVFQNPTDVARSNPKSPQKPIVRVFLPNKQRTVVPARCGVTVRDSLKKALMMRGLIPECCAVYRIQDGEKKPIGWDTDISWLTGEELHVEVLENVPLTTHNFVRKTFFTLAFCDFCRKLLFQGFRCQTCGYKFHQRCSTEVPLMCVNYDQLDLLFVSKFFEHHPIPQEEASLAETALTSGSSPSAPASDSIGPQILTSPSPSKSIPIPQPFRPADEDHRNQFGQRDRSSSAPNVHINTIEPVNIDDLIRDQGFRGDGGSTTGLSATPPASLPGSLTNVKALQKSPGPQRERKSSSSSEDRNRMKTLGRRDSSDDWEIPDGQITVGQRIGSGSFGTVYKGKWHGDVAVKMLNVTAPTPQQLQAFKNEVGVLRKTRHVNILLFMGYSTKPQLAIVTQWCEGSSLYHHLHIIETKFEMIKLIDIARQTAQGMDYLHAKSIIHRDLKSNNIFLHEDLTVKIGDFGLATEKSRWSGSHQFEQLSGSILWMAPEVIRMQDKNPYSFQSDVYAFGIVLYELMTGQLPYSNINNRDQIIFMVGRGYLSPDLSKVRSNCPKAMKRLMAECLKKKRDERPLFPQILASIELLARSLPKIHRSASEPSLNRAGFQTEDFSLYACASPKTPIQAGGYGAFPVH
Experimental: <1-1> Activation of MAP Kinase 2/Erk2 by B-raf
10 μl magnesium chloride/ATP solution (500 uM ATP, 75 mM magnesium chloride) was seeded in eppendorf tube. 2.5 μl B-Raf-V600E was seed (final conc. 1 ng) in eppendorf tube and treated with 1.6 μl deactivated MEK1 (final conc. 0.4 μg). The mixture was treated with 4 μl deactivated MAP kinase 2/Erk2 (final conc. 1.0 ug). And the mixture was treated with 1 μl example solution (10 mM) dissolved in dimethyl sulfoxide which was orderly diluted. Then, assay dilution buffer I (ADBI I) was added thereto (final vol. 38 μl) to make the final volume of 38 μl, and made it reacted at 30° C. for 30 min. 5 μl of resulting solution was used for the following experiment.
<1-2> Phosphorylation of Myelin basic protein (MBP)
5 μl of the above resulting solution was treated with 10 μl assay dilution buffer, and then treated with 10 μl Myelin basic protein (MBP, 2 mg/Ml). The mixture solution was treated with 10 μl of diluted (1/10) [γ^32P] ATP (100 uCi/vial) which is diluted at 30° C. for 10 min. 25 μl of the mixture solution was spotted onto a P81 paper, and the paper was washed four times with 0.75% phosphoric acid for 10 min and once with acetone for 5 min in scintillation vial. After 5 Ml of scintillation cocktail solution was added in the scintillation vial, signals were analyzed by scintillation counter.

SMILES: Cc1cn(-c2cc(NC(=O)c3ccc(C)c(Nc4nccc(-c5cccnc5)n4)c3)cc(C(F)(F)F)c2)cn1 [Nilotinib]
activity on T3151-Bcr-Abl (T3151-Bcr-Abl): inactive

SMILES: CCCS(=O)(=O)Nc1ccc(F)c(C(=O)c2c[nH]c3ncc(Cl)cc23)c1F [PLX-4720]
pIC50 (A375 melanoma cell line): 6.30

IC50 (Fms (h)): 141 µM
IC50 (Ret (h)): 603 µM
IC50 (SAPK2a (h)): 167 µM
IC50 (c-RAF (h)): 137 µM
IC50 (Tie2 (h)): 1510 µM
IC50 (KDR (h)): 332 µM
GI50 (A375P cells): < 10 µM
pIC50 (B-Raf-V600E): > 5.00
SMILES: Cc1ccc(NC(=O)Nc2ccc(Cl)c(C(F)(F)F)c2)cc1-c1ccc2c(C(=O)NCCN3CCOCC3)n[nH]c2c1 [Example 64, 6-(5-(3-(4-chloro-3-(trifluoromethyl)phenyl)ureido)-2-methylphenyl)-N-(2-morpholinoethyl)-1H-indazole-3-carboxamide]
